Two molecules from patent US20240026458A1, “Method for Determining Sensitivity to an Antineoplastic Agent” (UNIVERSITÉ LIBRE DE BRUXELLES, priority 2020, published 2024) can be followed below.

In one test the test system is SOX2 expression. Briefly: SOX2 mRNA (RT-qPCR) and protein (Western blot) in FAT1 WT cells treated with EZH2 inhibitor. It counts as cell-based, human. The settings on record: GSK343 500 nM, 7 days, versus DMSO. As to the method: (§1) The cells were lysed in cell lysis buffer (Cell Signaling, catalog #9803) with phosphatase inhibitor cocktail (Cell Signaling, catalog 5870) and 1 mM PMSF (Sigma, Cat #P7626) for 5 minutes on ice, sonicated 5 times 10 seconds and then centrifuged for 10 min at 14.000 rpm at 4° C. A range of 5 to 30 micrograms of cell lysate was loaded in NuPage 10% Bis-Tris gel (Invitrogen, Cat #NP0315BOX) and separated by electrophoresis. Proteins were transferred on nitrocellulose membranes (Thermo Scientific, Cat #88018). […]
RNA extraction from FACS isolated cells was performed using RNeasy micro kit (QIAGEN) according to the manufacturer's recommendations. For real-time PCR, after nanodrop quantification, the first strand cDNA was synthesized using Superscript II (Invitrogen) and random hexamers (Roche) in […] final volume. Control of genomic contaminations was measured for each sample by performing the same procedure with or without reverse transcriptase. Quantitative PCR assays were performed using 1 ng of cDNA as template, SYBRGreen mix (Applied Bioscience) on Light Cycler 96 (Roche) real-time PCR system. […]
(In general: Real-time PCR tracks product formation cycle by cycle.)

A further test relates to H3K27me3. In words: Western blot of global H3K27me3 in cells treated with inhibitor. It counts as cell-based, human. As to conditions: versus DMSO. As to the method:
The cells were lysed in cell lysis buffer (Cell Signaling, catalog #9803) with phosphatase inhibitor cocktail (Cell Signaling, catalog 5870) and 1 mM PMSF (Sigma, Cat #P7626) for 5 minutes on ice, sonicated 5 times 10 seconds and then centrifuged for 10 min at 14.000 rpm at 4° C. A range of 5 to 30 micrograms of cell lysate was loaded in NuPage 10% Bis-Tris gel (Invitrogen, Cat #NP0315BOX) and separated by electrophoresis. Proteins were transferred on nitrocellulose membranes (Thermo Scientific, Cat #88018). The membranes were incubated overnight with anti-phospho-CAMK2 (Rabbit, 1/133, Cell Signaling, clone D21E4, cat #12716) or anti-phospho-SCR Tyr416 (Rabbit, 1:3000, Cell Signaling, clone D49G4, Cat #6943) or anti-H3K27Me3 Lys27 (Rabbit, 1:3000, Millipore, Cat #17-622) or anti-phospho-MEK1/MEK2 Ser218, SER222, Ser226 (Rabbit, 1:1000, Invitrogen, Cat #44-454G) or anti-phospho-EGFR Y1197 (Rat, 1:500, R&D, MAB8058), anti-CAMK2 (pan) (Rabbit, 1/125, Cell Signaling, clone D11A10, cat #4436) or anti-SRC (Rabbit, 1:1000, Cell Signaling, clone32G6, Cat #2123) or anti-H3 (Rabbit, 1:6000, Abcam, Cat #ab1791) or anti-MEK1/MEK2 (Rabbit, 1:1000, Invitrogen, Cat #PA5-31917) or anti-EGFR (Rabbit, 1:1000, Cell Signaling, clone D38B1, Cat #4267), anti-YES (Rabbit, 1:1000, Cell Signaling, clone D9P3E, Cat #65890) and anti-β-actin (1:2000, Abcam, Cat #ab8227). […]
On the technique in general: A western blot detects proteins with antibodies after separation by electrophoresis.

For another test, the system named is FAT1 KO human SCC cells. In words: Expression of YAP1, ZEB1, E-Cadherin and SOX2 (immunostaining) in FAT1 KO cells treated with CAMK2 or SRC inhibitors. It counts as cell-based. As to the method:
After 96 h the cells were collected for WB as described above or for FACS analysis. For immunostaining present inventors followed the same treatment but the cells were plated previously on coverslips covered with gelatin.
After 72 h the cells were collected for WB or immunostaining as described above.

Another test has as its system surface CD44. In words: FACS analysis of surface CD44 in FAT1 KO cells treated with inhibitor. The settings on record: CAMK2 inhibitor (KN93) 10 μM, versus DMSO. It counts as cell-based, human. As to the method:
CD44 expression in FAT1 WT and FAT1 KO human SCC cells was performed after trypsinization of cells and incubation with APC conjugated anti-CD44 (Clone IM7, BioLegend Cat #103011, dilution 1:50) antibody. Living tumor cells were selected by forward and side scatter, doublets discriminating and DAPI dye exclusion.
For CAMK2 inhibition present inventors used CAMK2 inhibitor KN93 (Selleckchem Cat #57423, dissolved in DMSO) at 10 μM and present inventors incubated cells during 96 h refreshing the medium once after 48 h. After 96 h the cells were collected for WB as described above or for FACS analysis. For immunostaining present inventors followed the same treatment but the cells were plated previously on coverslips covered with gelatin.
(In general: Flow cytometry measures light scatter and fluorescence of single cells or particles in a stream.)

Test [1] concerns FAT1 WT and FAT1 KO human SCC cells (A388). Briefly: Drug sensitivity assay (cell viability by FACS), FAT1 WT versus FAT1 KO cells. The class given is cell-based. The settings on record: cell viability at 48 h, serial dilution of inhibitor, 5% FBS medium. As to the method: For the drug sensitivity assay, cells have been seeded at a density of 4000 cells/well in a 96 well plate. […] 48 hours after the start of treatment, cells have been harvested by trypsinization, and quantified by counting the number of living cells by FACS. Living cells were selected by forward and side scatter and by Hoechst dye exclusion. Each data point is the result of at least three independent replicates; each of the replicates is evaluated using a technical duplicate. Drug response curves and IC50 values have been calculated using the Prism8 software.

For the next test, the system named is SRC/YES phosphorylation. Briefly: Western blot of phosphorylated SRC/YES in FAT1 KO cells treated with inhibitor. It counts as cell-based, human. The settings on record: KN93 10 μM, 96 h, versus DMSO. Here is the method:
A388 cells (human skin SCC) cells were maintained in DMEM medium supplemented with 10% FBS, 100 U/ml Pen/Strep and 2 mM L-glutamine. 293T cells were maintained in DMEM (Gibco) supplemented with 10% FBS, 2 mM Glutamine, 100 U/ml Pen/Strep solution, MEM Non-Essential Amino Acids Solution and Pyruvate. All cell lines were acquired from ATCC and cultured at 37 degrees with 20% 02 and 5% CO2.
as §1

The mark [2] stands for this setting: FAT1 KO cells treated with inhibitor (data not shown).

For `CCCc1cc(C)[nH]c(=O)c1CNC(=O)c1cc(-c2ccnc(N3CCN(C)CC3)c2)cc2c1cnn2C(C)C` [GSK343], in the test on SOX2 expression, the “SOX2 mRNA expression” value was “increased” and the SOX2 protein expression entry is listed as “increased”. In addition, the H3K27me3 entry in the test with H3K27me3 (FAT1 WT cells, GSK343 500 nM, 7 days) is “decreased”.

As to `COc1ccc(S(=O)(=O)N(CCO)c2ccccc2CN(C)C/C=C/c2ccc(Cl)cc2)cc1` [KN93], the SOX2 expression entry in the test on FAT1 KO human SCC cells (FAT1 KO TCs treated with inhibitor (data not shown)) was “decrease”. Further, in the test on FAT1 KO human SCC cells (setting [2]), the E-Cadherin expression result was “increase”, the ZEB1 entry is reported as “strong decrease”, the colony morphology result is recorded as “more compact epithelial colonies” and the “nuclear YAP1” value was “strong decrease”. Besides, in the test with surface CD44, the “levels of surface CD44” value is reported as “decreased significantly”. Also, the “global levels of H3K27me3” value in the test on H3K27me3 (FAT1 KO cells treated with CAMK2 inhibitor) is “increased”. In test [1], the “sensitivity of FAT1 KO cells as compared to FAT1 WT cells” value was “significantly more sensitive”. The SRC/YES phosphorylation levels result in the test with SRC/YES phosphorylation is “greatly decreased”.
